How the values were obtained:
Assay type in all cases: in vivo, rabbit
[1] = tested on: normotensive adult rabbits; test: IOP measurement (TonoPen XL) after a single topical 50-μL drop in rabbits
Protocol: (§1) Male and female adult brown burgundy rabbits (2.6-4.4 kg) are used in this study. Animals are kept in individual cages under well-defined and standardized conditions (humidity and temperature controlled room, 13 h light/11 h dark cycle) with standard dry food and water ad libitum. All animals are accustomed to the procedure of IOP measurement but only those animals that have stable records are included in the study. All experiments are conducted in accordance with the ARVO resolution for the use of animals in ophthalmic and vision research and are approved by the Federal and Local Ethical and Agricultural Committees.
(§2) Solutions of a test drug are freshly prepared before each experiment by dissolution in sterile balanced salt solution (BSS) (Alcon Pharmaceuticals Ltd, Forth Worth, Tex., USA) at the required concentrations under sterile conditions. One 50-μL drop of the test solution is applied topically to the right eye whereas the contralateral eye receives the carrier BSS only.
IOP is measured with a TonoPen XL (Mentor, Norvel, Mass.), the device being calibrated daily according to the manufacturer's instructions. […] Corneas are anaesthetized by topical application of a 50-μL drop of 0.2% Novocaine prior to each IOP measurement.
Measurements are always initiated at the same time (8 a.m.), a sufficient recovery period of at least 7 days is provided for the animals between the experiments. Control readings are taken 10 minutes before instillation of the test drug to the right eye and of the vehicle to the left one. IOP is recorded at 1-hour intervals for the ensuing 8 hours. Baseline measurements are likewise performed hourly in all animals prior to treatment, for monitoring of diurnal rhythms. (9)
Data are analyzed according to the Mann-Whitney U-test. IOP values recorded before and after application of Rivastigmine or the drug vehicle are compared in the same eye, differences with a first order error of P<0.05 being considered as statistically significant.

[2] = tested on: normotensive adult rabbits; test: Pupil diameter measurement; details: topical 1%, 2%, 5% solutions
Protocol: as §1, §2
Pupil diameter is measured horizontally in both eyes using a pupil gauge closely applied to the cornea under diffuse illumination conditions.

[3] = tested on: normotensive adult rabbits; test: Slit-lamp examination (local tolerability); details: topical 1%, 2%, 5% solutions; before and 4 and 8 hours after administration
Protocol: as §1, §2
Slit-lamp biomicroscopy is performed by a trained ophthalmologist before drug administration and 4 and 8 hours thereafter. Eyes are controlled for conjunctival redness and discharge, for integrity of the corneal epithelium and for the absence or presence of flare (protein in the anterior chamber being an indication of blood aqueous barrier breakdown).

With `CCN(C)C(=O)Oc1cccc(C(C)N(C)C)c1` (centres unmarked) [Rivastigmine] the “Time of maximal mean decrease in IOP, treated eye” value ([1]; 1% solution) was 5 h, the “Duration of significant IOP-lowering effect, treated eyes” value ([1]; 1% solution (longest effect)) was 5 h and the “IOP, left eye (untreated, vehicle)” value ([1]; 1% solution applied to contralateral right eye, n=8, time 0 hrs (control reading before instillation)) was 12.0 mm. For the same compound, the “Time of maximal mean decrease in IOP, untreated eye” value ([1]; 1% solution to contralateral eye) was 4 h, the “IOP, left eye (untreated, vehicle)” value ([1]; 1% solution to contralateral eye, time 1 hrs) was 11.6 mm and the “IOP, left eye (untreated, vehicle)” value ([1]; 1% solution to contralateral eye, time 2 hrs) was 11.2 mm. The “IOP, left eye (untreated, vehicle)” value ([1]; 1% solution to contralateral eye, time 3 hrs) was 11.1 mm, the “IOP, left eye (untreated, vehicle)” value ([1]; 1% solution to contralateral eye, time 4 hrs) was 10.2 mm and the “IOP, left eye (untreated, vehicle)” value ([1]; 1% solution to contralateral eye, time 5 hrs) was 11.0 mm. For the same compound, the “IOP, left eye (untreated, vehicle)” value ([1]; 1% solution to contralateral eye, time 6 hrs) was 10.7 mm, the “IOP, left eye (untreated, vehicle)” value ([1]; 1% solution to contralateral eye, time 7 hrs) was 11.1 mm and the “IOP, left eye (untreated, vehicle)” value ([1]; 1% solution to contralateral eye, time 8 hrs) was 11.4 mm. The “IOP, right eye (treated)” value ([1]; 1% solution, 50-μL drop topical, n=8, time 0 hrs (control reading before instillation)) was 12.3 mm, the “Maximal mean decrease in IOP, treated eye” value ([1]; 1% solution, 5 hours after application) was 2.6±1.2 mm Hg and the “IOP, right eye (treated)” value ([1]; 1% solution, time 1 hrs) was 12.0 mm. For the same compound, the “IOP, right eye (treated)” value ([1]; 1% solution, time 2 hrs) was 11.2 mm, the “IOP, right eye (treated)” value ([1]; 1% solution, time 3 hrs) was 10.8 mm and the “IOP, right eye (treated)” value ([1]; 1% solution, time 4 hrs) was 10.5 mm. The “IOP, right eye (treated)” value ([1]; 1% solution, time 5 hrs) was 10.1 mm, the “IOP, right eye (treated)” value ([1]; 1% solution, time 6 hrs) was 11.1 mm and the “IOP, right eye (treated)” value ([1]; 1% solution, time 7 hrs) was 11.5 mm. For the same compound, the “IOP, right eye (treated)” value ([1]; 1% solution, time 8 hrs) was 11.6 mm, the “Time of maximal mean decrease in IOP, treated eye” value ([1]; 2% solution) was 3 h and the “IOP, left eye (untreated, vehicle)” value ([1]; 2% solution applied to contralateral right eye, n=4, time 0 hrs (control reading before instillation)) was 11.2 mm. For the same compound, the “Time of maximal mean decrease in IOP, untreated eye” value ([1]; 2% solution to contralateral eye) was 3 h, the “IOP, left eye (untreated, vehicle)” value ([1]; 2% solution to contralateral eye, time 1 hrs) was 11.9 mm and the “IOP, left eye (untreated, vehicle)” value ([1]; 2% solution to contralateral eye, time 2 hrs) was 11.2 mm. The “IOP, left eye (untreated, vehicle)” value ([1]; 2% solution to contralateral eye, time 3 hrs) was 10.2 mm, the “IOP, left eye (untreated, vehicle)” value ([1]; 2% solution to contralateral eye, time 4 hrs) was 12.3 mm and the “IOP, left eye (untreated, vehicle)” value ([1]; 2% solution to contralateral eye, time 5 hrs) was 11.5 mm. The “IOP, left eye (untreated, vehicle)” value ([1]; 2% solution to contralateral eye, time 6 hrs) was 11.2 mm, the “IOP, left eye (untreated, vehicle)” value ([1]; 2% solution to contralateral eye, time 7 hrs) was 11.0 mm and the “IOP, left eye (untreated, vehicle)” value ([1]; 2% solution to contralateral eye, time 8 hrs) was 13.0 mm. For the same compound, the “IOP, right eye (treated)” value ([1]; 2% solution, 50-μL drop topical, n=4, time 0 hrs (control reading before instillation)) was 11.5 mm, the “Maximal mean decrease in IOP, treated eye” value ([1]; 2% solution, 3 hours after application) was 2.2±0.8 mm Hg and the “IOP, right eye (treated)” value ([1]; 2% solution, time 1 hrs) was 11.5 mm. For the same compound, the “IOP, right eye (treated)” value ([1]; 2% solution, time 2 hrs) was 11.0 mm, the “IOP, right eye (treated)” value ([1]; 2% solution, time 3 hrs) was 9.2 mm and the “IOP, right eye (treated)” value ([1]; 2% solution, time 4 hrs) was 10.8 mm. The “IOP, right eye (treated)” value ([1]; 2% solution, time 5 hrs) was 11.5 mm, the “IOP, right eye (treated)” value ([1]; 2% solution, time 6 hrs) was 11.1 mm and the “IOP, right eye (treated)” value ([1]; 2% solution, time 7 hrs) was 10.8 mm. The “IOP, right eye (treated)” value ([1]; 2% solution, time 8 hrs) was 12.0 mm, the “Time of maximal mean decrease in IOP, treated eye” value ([1]; 5% solution) was 1 h and the “IOP, left eye (untreated, vehicle)” value ([1]; 5% solution applied to contralateral right eye, n=6, time 0 hrs (control reading before instillation)) was 13.4 mm. The “Time of maximal mean decrease in IOP, untreated eye” value ([1]; 5% solution to contralateral eye) was 1 h, the “IOP, left eye (untreated, vehicle)” value ([1]; 5% solution to contralateral eye, time 1 hrs) was 10.7 mm and the “IOP, left eye (untreated, vehicle)” value ([1]; 5% solution to contralateral eye, time 2 hrs) was 11.5 mm. For the same compound, the “IOP, left eye (untreated, vehicle)” value ([1]; 5% solution to contralateral eye, time 3 hrs) was 11.3 mm, the “IOP, left eye (untreated, vehicle)” value ([1]; 5% solution to contralateral eye, time 4 hrs) was 11.9 mm and the “IOP, left eye (untreated, vehicle)” value ([1]; 5% solution to contralateral eye, time 5 hrs) was 13.2 mm. The “IOP, left eye (untreated, vehicle)” value ([1]; 5% solution to contralateral eye, time 6 hrs) was 12.5 mm, the “IOP, left eye (untreated, vehicle)” value ([1]; 5% solution to contralateral eye, time 7 hrs) was 13.3 mm and the “IOP, left eye (untreated, vehicle)” value ([1]; 5% solution to contralateral eye, time 8 hrs) was 13.0 mm. The “Significance of IOP decrease in untreated eyes” value ([1]; 5% solution to contralateral eye, P<0.05, Mann-Whitney U-test) was “significant”, the “IOP, right eye (treated)” value ([1]; 5% solution, 50-μL drop topical, n=6, time 0 hrs (control reading before instillation)) was 13.7 mm and the “Maximal mean decrease in IOP, treated eye” value ([1]; 5% solution, 1 hour after application) was 3.5±1.2 mm Hg. The “IOP, right eye (treated)” value ([1]; 5% solution, time 1 hrs) was 10.0 mm, the “IOP, right eye (treated)” value ([1]; 5% solution, time 2 hrs) was 11.1 mm and the “IOP, right eye (treated)” value ([1]; 5% solution, time 3 hrs) was 10.8 mm. For the same compound, the “IOP, right eye (treated)” value ([1]; 5% solution, time 4 hrs) was 10.5 mm, the “IOP, right eye (treated)” value ([1]; 5% solution, time 5 hrs) was 12.9 mm and the “IOP, right eye (treated)” value ([1]; 5% solution, time 6 hrs) was 12.5 mm. For the same compound, the “IOP, right eye (treated)” value ([1]; 5% solution, time 7 hrs) was 14.0 mm, the “IOP, right eye (treated)” value ([1]; 5% solution, time 8 hrs) was 11.8 mm and the “IOP effect in the treated eye (in words)” value ([1]; topical 1%, 2%, 5% solutions) was “lowers the IOP significantiy”. The “Pupil reaction in drug-treated eyes” value [2] was “insignificant miotic pupil reaction” and the “Local toxicity (slit-lamp: redness, discharge, corneal epithelium, flare)” value [3] was “No signs of rivastigmine-related local toxicity”.
